{"source": "paper PMC10764104", "about": "“Discovery of Molecular Glue Degraders via Isogenic Morphological Profiling” (ACS Chemical Biology, 2023)", "test_system": "RKO WT cells", "settings": "48 h, up to 13.5 μM tested", "source_text": "Prior to screening the compound library in the isogenic CPA, we assessed their CRBN binding affinities using a fluorescence-polarization-based competition assay with recombinant DDB1-CRBN and the fluorescent tracer 16 (Figure S2). […] We also assessed the cytotoxicity of the CRBN binders in RKO wild-type (WT) cells to determine the appropriate treatment concentration.\nAssessment of gene expression and essentiality in RKO WT\nPublic datasets on the transcriptome and essentiality of a protein‐encoding gene for RKO (cell line ID: ACH‐000943) were retrieved from DepMap Public 23Q2 (https://depmap.org/portal/, accessed on 14 August 2023). […]\nFluorescence Polarization‐based competition assay\nFluorescence Polarization assays were performed in 384‐well, Low Volume, Black, Round Bottom, Polystyrene Nonbinding surface Microplates (Corning, #4514). […] Fluorescence polarization values were determined with a PerkinElmer Envision reader with FITC FP dual mirror and FITC FP 480 excitation filter and FITC FP 535 emission filters. Fluorescence polarization values of a 10x serial dilution (10 nM to 100 µM) of the test compounds were determined in triplicates. EC50 values were calculated with GraphPad Prism software (version 10.0.2) with a non‐linear fit function (4PL sigmoidal curve fit) adjusting the bottom constrain to the FP value of free tracer. […]"}
{"smiles": "CN(Cc1ncc(C2CC2)o1)S(=O)(=O)Oc1ccc(Nc2ccc3c(c2)C(=O)N(C2CCC(=O)NC2=O)C3=O)cc1", "note": "(stereo not shown) [FL2-14]", "values": [{"measurement": "cytotoxicity (CellTiter-Glo)", "value": "not cytotoxic"}]}
